Source: patent US11958812B2, “3, 5-disubstituted pyridine and 3, 5-disubstituted pyridazine derivatives and pharmaceutical use of same” (MITSUBISHI TANABE PHARMA CORPORATION, priority 2018, dated 2024)

What was measured:
[1] = target: T1, ATX activity in plasma (Mus musculus, UniProt Q9R1E6); assay: ATX activity in plasma in the mouse bleomycin-induced lung fibrosis model; type: in vivo, female C57BL/6J mouse; details: 30 mg/kg, bid, oral, 14 days; FIG. 5
T1 construct: from tissue; host or cells: plasma of female C57BL/6J mice (bleomycin-induced lung fibrosis model)
Description: A compound administration solution prepared by wet pulverization in a mixer mill (type: MM400) for 10 min and adjusting to a given concentration with 0.5% aqueous carboxymethylcellulose solution was orally administered to male Wistar rat (5-week-old when used) at 5 mL/kg. Blood samples were collected from the cervical vein over time at 8 to 24 hr after administration. The blood was heparin-treated using a micro blood collection tube Capiject (CJ-AL, TERUMO CORPORATION), and the plasma was separated by centrifugation (4° C., 12,000 rpm, for 2 min), and preserved at −80° C. […] The measurement of ATX activity in plasma was evaluated using the concentration of choline in the plasma, which was liberated from lysophosphatidylcholine (substrate of ATX) by the lysophospholipase D activity of ATX, as an index. […] The reaction mixture (10 μL) after reaction for 6 hr and 45 μL of reagent R^1 solution (100 mM Tris-HCl pH 8.0, 0.5 mM TOOS, 10 U/mL peroxidase, 0.01% Triton X-100) were added and blended and absorbance at 550-700 nm was measured and used as a prevalue. […] 1 mM choline chloride was diluted with 2× assay buffer up to 7 steps in 2-fold serial dilution, R^1 solution was treated similarly and the absorbance was measured. […]
At 14 days from the bleomycin administration, plasma, BALF and lung tissue were collected. BALF was recovered and the concentration of LPA (18:2) in BALF (FIG. 6) was measured. […]

[2] = test system: bleomycin (BLM)-induced lung fibrosis model; assay: Mouse bleomycin-induced lung fibrosis model: fibrosis markers in plasma, BALF and lung; type: in vivo, female C57BL/6J mouse; details: 30 mg/kg, bid, oral, 14 days
Description: [Consideration of Action of ATX Inhibitor on Mouse Bleomycin-Induced Lung Fibrosis Model]
The effectiveness of an ATX inhibitor (Example 5, hereinafter to be referred to as example 5 in the Figures) on bleomycin (BLM)-induced lung fibrosis model was evaluated using, as an index, variation of each fibrosis index marker in the plasma or BALF, or fibrosis related genes in the lung.
8-Week-old mice were grouped in the group constitution shown in Table 24 using a simulation method such that the body weight would become uniform before the previous day of bleomycin administration (SOP/STA/RA-0003). The mice were anesthetized with isoflurane, 0.5 mg/mL of bleomycin solution was intratracheally administered at 50 μL/head to produce a bleomycin-induced lung fibrosis model (1.25 U/kg). In the saline group, physiological saline was administered instead of bleomycin. The ATX inhibitor (Example 5) was orally administered two times per day from the day of bleomycin administration. In addition, the body weight was measured once per day from the day of grouping.
One equivalent of a mixture of 1N NaOH and 0.5% CMC solution (100 μL in total) relative to the ATX inhibitor (Example 5) was added, 10 zirconia beads (φ3 mm) were added, and they were pulverized using a mixer mill MM400 (frequency 28.01/min, pulverization time 10 min). 0.5% CMC was added to […] to give a suspension and the suspension was sonicated for 10 min. The administration dose volume was 10 mL/Kg and the administration dose amount was 30 mg/kg. Administration was performed twice per day and the initial administration was performed 30 min before BLM administration.
animal species: female C57BL/6J mouse, supply company: CHARLES RIVER LABORATORIES JAPAN, INC., number of animals used: 10 per group (age at arrival: 7 weeks old).
At 14 days from the bleomycin administration, plasma, BALF and lung tissue were collected. BALF was recovered and the concentration of LPA (18:2) in BALF (FIG. 6) was measured. After blood was collected from the abdominal vena cava, whole blood was anticoagulated using heparin and centrifuged to collect plasma. Then, the ATX activity (FIG. 5) and SP-D (FIG. 1) in the plasma were measured. Furthermore, the chest was opened and whole lung tissue was collected, and gene expression of each of Col1a1 (FIG. 2), CTGF (FIG. 3) and IL-6 (FIG. 4) in the lung was analyzed. For the gene expression analysis, mRNA was extracted from the lung tissue using TRIzol, reverse transcription was performed using a kit of Life technologies, and qPCR was performed using Tagman probe.
An organic solvent and LPA (17:0) solution as an internal standard substance were added to the collected BALF (200 μL), and the mixture was dried to solidness under reduced pressure at 35° C. […] The analysis sample was separated by reversed-phase column and LPA (18:2) was detected by the QTRAP6500 system (ABSciex). In addition, LPA (18:2) synthesis reference standard was added to PBS buffer used for recovery of BALF and compared with the analytical curve sample that underwent a similar pre-treatment, whereby the concentration of LPA (18:2) contained in BALF was calculated (FIG. 6).
The difference between the saline group and the BLM administration group and the difference between the BLM administration group and the compound administration group were analyzed by the Student's t-test wherein the significance level was 5% on both sides. […]

COc1ccc(-c2cnnc(OC[C@H]3CC[C@H](C(F)(F)F)CC3)c2)nc1[C@H]1C[C@@H]1C(=O)O [Example 5, (1S,2S)-2-[3-methoxy-6-(6-{[trans-4-(trifluoromethyl)cyclohexyl]methoxy}pyridazin-4-yl)pyridin-2-yl]cyclopropanecarboxylic Acid] was tested, and the “ATX activity in the plasma” value [1] was “suppressed ATX activity in the plasma completely”, the “SP-D in the plasma” value ([2]; FIG. 1) was “suppressed” and the “production of LPA (C18:2) in BALF” value ([2]; FIG. 6) was “suppressive action”. The “Col1a1 gene expression in the lung” value ([2]; mRNA in lung tissue, FIG. 2) was “expression suppressive action”, the “CTGF gene expression in the lung” value ([2]; mRNA in lung tissue, FIG. 3) was “expression suppressive action” and the “IL-6 gene expression in the lung” value ([2]; mRNA in lung tissue, FIG. 4) was “expression suppressive action”.
